Measurements taken from US20170304388A1, “NEW INDICATION OF CARDIOVASCULAR DRUGS FOR PREPARATION OF CANCER INHIBITION PHARMACEUTICAL COMPOSITION” (LAUNX BIOMEDICAL CO., LTD., priority 2014, published 2017).
Like-named read-outs stand apart in the source and are kept apart here.

Assays:
Assay type in all cases: cell-based
[1] = test system: AsPC-1; test: Cell viability analysis (WST-1), AsPC-1; conditions: Homo sapiens, ASPC1, 72 h, Table 4, repeated experiments, drug 10 μM, read-out: survival rate (viability) of cancer cells, AsPC-1
How it was run: (§1)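 3000 cells/well; drug 10 μM, 72 h; diluted WST-1 (medium:stock 9:1), 37° C, 30–90 min; OD450 nm read, survival rate calculated.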

[2] = test system: MKN-45 (Gastric Adenocarcinoma); test: Cell viability analysis (WST-1), MKN-45; conditions: Homo sapiens, MKN-45, 72 h
[3] = test system: C-33A; test: Cell viability analysis (WST-1), C-33A; conditions: Homo sapiens, C-33-A, 72 h, Table 4, repeated experiments, drug 10 μM, read-out: survival rate (viability) of cancer cells, C-33A
How it was run: as §1

[4] = test system: AGS (Gastric Adenocarcinoma); test: Cell viability analysis (WST-1), AGS; conditions: 72 h
[5] = test system: HCT116 (Colorectal Carcinoma); test: Cell viability analysis (WST-1), HCT116; conditions: Homo sapiens, HCT-116, 72 h
[6] = test system: NIH-OVCAR-3; test: Cell viability analysis (WST-1), NIH-OVCAR-3; conditions: Homo sapiens, OVCAR-3, 72 h, Table 4, repeated experiments, drug 10 μM, read-out: survival rate (viability) of cancer cells, NIH-OVCAR-3
How it was run: as §1

[7] = test system: HeLa (Cervix Adenocarcinoma); test: Cell viability analysis (WST-1), HeLa; conditions: Homo sapiens, HeLa, 72 h
[8] = test system: cancer cell lines; test: Growth inhibitory effects on the panel of cancer cell lines; conditions: count of cancer cell lines inhibited; drug 10 μM, 72 hours
[9] = test system: TSGH-8301 (Urinary Bladder Carcinoma); test: Cell viability analysis (WST-1), TSGH-8301; conditions: 72 h, Table 4, repeated experiments, drug 10 μM, WST-1, read-out: survival rate (viability) of cancer cells, TSGH-8301
[10] = test system: SAS; test: Cell viability analysis (WST-1), SAS; conditions: 72 h, Table 4, repeated experiments, drug 10 μM, read-out: survival rate (viability) of cancer cells, SAS
How it was run: as §1

[11] = test system: TOV-21G; test: Cell viability analysis (WST-1), TOV-21G; conditions: Homo sapiens, TOV21G, 72 h, Table 4, repeated experiments, drug 10 μM, read-out: survival rate (viability) of cancer cells, TOV-21G
How it was run: as §1

[12] = test system: LoVo (Colorectal Adenocarcinoma); test: Cell viability analysis (WST-1), LoVo; conditions: Homo sapiens, LoVo, 72 h
[13] = test system: HepG2 (Hepatocellular Carcinoma); test: Cell viability analysis (WST-1), HepG2; conditions: Homo sapiens, HepG2, 72 h
[14] = test system: T24; test: Cell viability analysis (WST-1), T24; conditions: Homo sapiens, T-24, 72 h, Table 4, repeated experiments, drug 10 μM, read-out: survival rate (viability) of cancer cells, T24
How it was run: as §1

[15] = test system: MDA-MB231; test: Cell viability analysis (WST-1), MDA-MB231; conditions: Homo sapiens, MDA-MB-231, 72 h, Table 4, repeated experiments, drug 10 μM, read-out: survival rate (viability) of cancer cells, MDA-MB231
[16] = test system: H1650 (Lung Adenocarcinoma); test: Cell viability analysis (WST-1), H1650; conditions: Homo sapiens, NCI-H1650, 72 h
[17] = test system: BCC; test: Cell viability analysis (WST-1), BCC; conditions: BCC, 72 h, Table 4, repeated experiments, drug 10 μM, read-out: survival rate (viability) of cancer cells, BCC
[18] = test system: BxPC-3; test: Cell viability analysis (WST-1), BxPC-3; conditions: Homo sapiens, BXPC-3, 72 h, Table 4, repeated experiments, drug 10 μM, read-out: survival rate (viability) of cancer cells, BxPC-3
How it was run: as §1

[19] = test system: A375 (Amelanotic Melanoma); test: Cell viability analysis (WST-1), A375; conditions: Homo sapiens, A-375, 72 h

In the case of `CCC(C)(C)C(=O)O[C@H]1C[C@@H](C)C=C2C=C[C@H](C)[C@H](CC[C@@H]3C[C@@H](O)CC(=O)O3)[C@H]21` [Simvastatin (Zocor), Simvastatin], the viability at 10 µM [1] is reported as 78.2%, the viability at 10 µM ([2]; Table 3, drug 10 μM, WST-1, OD450 nm, read-out: survival rate (viability) of cancer cells, MKN-45) is reported as 79.4% and the viability at 10 µM ([2]; Table 4, repeated experiments, drug 10 μM, WST-1, read-out: survival rate (viability) of cancer cells, MKN-45) is reported as 92.6%. The viability at 10 µM [3] was 112%, the viability at 10 µM ([4]; Table 3, drug 10 μM, WST-1, OD450 nm, read-out: survival rate (viability) of cancer cells, AGS) was 85.6% and the viability at 10 µM ([4]; Table 4, repeated experiments, drug 10 μM, WST-1, read-out: survival rate (viability) of cancer cells, AGS) was 81%. The viability at 10 µM ([5]; Table 3, drug 10 μM, WST-1, OD450 nm, read-out: survival rate (viability) of cancer cells, HCT116 (WT)) was 124%, the viability at 10 µM ([5]; Table 4, repeated experiments, drug 10 μM, WST-1, read-out: survival rate (viability) of cancer cells, HCT116) was 83.2% and the viability at 10 µM [6] was 98.4%. The viability at 10 µM ([7]; Table 3, drug 10 μM, WST-1, OD450 nm, read-out: survival rate (viability) of cancer cells, HeLa) was 104%, the viability at 10 µM ([7]; Table 4, repeated experiments, drug 10 μM, WST-1, read-out: survival rate (viability) of cancer cells, HeLa) was 100% and the “Numbers of inhibitory effect on cancer cell line” value [8] was 0. The viability at 10 µM [9] was 106%, the viability at 10 µM [10] was 83.9% and the viability at 10 µM [11] was 63.6%. For the same compound, the viability at 10 µM ([12]; Table 3, drug 10 μM, WST-1, OD450 nm, read-out: survival rate (viability) of cancer cells, LoVo) was 99.9%, the viability at 10 µM ([12]; Table 4, repeated experiments, drug 10 μM, WST-1, read-out: survival rate (viability) of cancer cells, LoVo) was 89.3% and the viability at 10 µM ([13]; Table 3, drug 10 μM, WST-1, OD450 nm, read-out: survival rate (viability) of cancer cells, HepG2) was 113%. The viability at 10 µM ([13]; Table 4, repeated experiments, drug 10 μM, WST-1, read-out: survival rate (viability) of cancer cells, HepG2) was 124%, the viability at 10 µM [14] was 89.6% and the viability at 10 µM [15] was 71.1%. It also gave a viability at 10 µM ([16]; Table 3, drug 10 μM, WST-1, OD450 nm, read-out: survival rate (viability) of cancer cells, H1650) of 115%, a viability at 10 µM ([16]; Table 4, repeated experiments, drug 10 μM, WST-1, read-out: survival rate (viability) of cancer cells, H1650) of 79.8% and a viability at 10 µM [17] of 57.4%. It also gave a viability at 10 µM [18] of 81.8%, a viability at 10 µM ([19]; Table 3, drug 10 μM, WST-1, OD450 nm, lower viability = better inhibition, read-out: survival rate (viability) of cancer cells, A375) of 114% and a viability at 10 µM ([19]; Table 4, repeated experiments, drug 10 μM, WST-1, read-out: survival rate (viability) of cancer cells, A375) of 78.6%.
